# Source: the supplement of paper PMC10307832
# Key:
# Experiment in all cases: relative viability (nuclei count vs DMSO), 5 days (fraction); higher = more cells survive
# [1] = test system: PC-14
# Summary of the method: (§1)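 Lung cancer cell lines were seeded in 1536-well plates and dosed by pin tool the next day, with either a single drug or a fixed anchor-drug dose combined with five library-drug doses (not always all listed) spaced in √10 steps. Five days later, one step fixed the cells and stained their nuclei (final 0.05% Triton X-100, 1% formaldehyde, 1 ug/ml Hoechst), and nuclei were counted on 4× images. Relative viability is the nuclei count in treated wells divided by the count in vehicle wells, and each value is the median of duplicate plates.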
# [2] = test system: HCC-366
# Summary of the method: as §1
# [3] = test system: NCI-H23
# Summary of the method: as §1
# [4] = test system: NCI-H661
# Summary of the method: as §1
# [5] = test system: NCI-H2009
# Summary of the method: as §1
# [6] = test system: LC-2-ad
# Summary of the method: as §1
# [7] = test system: NCI-H2342
# Summary of the method: as §1
# [8] = test system: NCI-H1975
# Summary of the method: as §1
# [9] = test system: HCC-827
# Summary of the method: as §1
# [10] = test system: NCI-H2085
# Summary of the method: as §1
# [11] = test system: H3255
# Summary of the method: as §1
# [12] = test system: NCI-H2228
# Summary of the method: as §1
# [13] = test system: COR-L23
# Summary of the method: as §1
# [14] = test system: NCI-H1437
# Summary of the method: as §1
# [15] = test system: UMC-11
# Summary of the method: as §1
# [16] = test system: ABC-1
# Summary of the method: as §1
# [17] = test system: NCI-H1666
# Summary of the method: as §1
# [18] = test system: PC-3 [JPC-3]
# Summary of the method: as §1
# [19] = test system: NCI-H2087
# Summary of the method: as §1
# [20] = test system: SK-MES-1
# Summary of the method: as §1
# [21] = test system: LXF-289
# Summary of the method: as §1
# [22] = test system: HCC-15
# Summary of the method: as §1
# [23] = test system: LCLC-103H
# Summary of the method: as §1
smiles,measurement,setting,value
Cc1cn(-c2cc(NC(=O)c3ccc(C)c(Nc4nccc(-c5cccnc5)n4)c3)cc(C(F)(F)F)c2)cn1 [Nilotinib] + Cc1nc(Nc2ncc(C(=O)Nc3c(C)cccc3Cl)s2)cc(N2CCN(CCO)CC2)n1 [Dasatinib] (partner 0.075 µM),relative viability,[1]; first compound 0.001 µM,0.226
same,relative viability,[1]; first compound 0.003162 µM,0.254
same,relative viability,[1]; first compound 0.01 µM,0.198
same,relative viability,[1]; first compound 0.03162 µM,0.16
same,relative viability,[1]; first compound 0.1 µM,0.0622
same,relative viability,[2]; first compound 0.001 µM,0.614
same,relative viability,[2]; first compound 0.003162 µM,0.938
same,relative viability,[2]; first compound 0.01 µM,0.958
same,relative viability,[2]; first compound 0.03162 µM,0.4
same,relative viability,[2]; first compound 0.1 µM,0.181
same,relative viability,[3]; first compound 0.001 µM,0.691
same,relative viability,[3]; first compound 0.003162 µM,0.681
same,relative viability,[3]; first compound 0.01 µM,0.823
same,relative viability,[3]; first compound 0.03162 µM,0.309
same,relative viability,[3]; first compound 0.1 µM,0.508
same,relative viability,[4]; first compound 0.001 µM,0.923
same,relative viability,[4]; first compound 0.003162 µM,0.956
same,relative viability,[4]; first compound 0.01 µM,0.921
same,relative viability,[4]; first compound 0.03162 µM,0.635
same,relative viability,[4]; first compound 0.1 µM,0.613
same,relative viability,[5]; first compound 0.001 µM,0.278
same,relative viability,[5]; first compound 0.003162 µM,0.258
same,relative viability,[5]; first compound 0.01 µM,0.261
same,relative viability,[5]; first compound 0.03162 µM,0.212
same,relative viability,[5]; first compound 0.1 µM,0.199
same,relative viability,[6]; first compound 0.001 µM,0.512
same,relative viability,[6]; first compound 0.003162 µM,0.701
same,relative viability,[6]; first compound 0.01 µM,0.574
same,relative viability,[6]; first compound 0.03162 µM,0.43
same,relative viability,[6]; first compound 0.1 µM,0.387
same,relative viability,[7]; first compound 0.001 µM,0.277
same,relative viability,[7]; first compound 0.003162 µM,0.303
same,relative viability,[7]; first compound 0.01 µM,0.302
same,relative viability,[7]; first compound 0.03162 µM,0.273
same,relative viability,[7]; first compound 0.1 µM,0.298
same,relative viability,[8]; first compound 0.001 µM,0.312
same,relative viability,[8]; first compound 0.003162 µM,0.39
same,relative viability,[8]; first compound 0.01 µM,0.309
same,relative viability,[8]; first compound 0.03162 µM,0.318
same,relative viability,[8]; first compound 0.1 µM,0.209
same,relative viability,[9]; first compound 0.001 µM,0.301
same,relative viability,[9]; first compound 0.003162 µM,0.308
same,relative viability,[9]; first compound 0.01 µM,0.329
same,relative viability,[9]; first compound 0.03162 µM,0.283
same,relative viability,[9]; first compound 0.1 µM,0.284
same,relative viability,[10]; first compound 0.001 µM,0.28
same,relative viability,[10]; first compound 0.003162 µM,0.198
same,relative viability,[10]; first compound 0.01 µM,0.179
same,relative viability,[10]; first compound 0.03162 µM,0.231
same,relative viability,[10]; first compound 0.1 µM,0.248
same,relative viability,[11]; first compound 0.001 µM,0.381
same,relative viability,[11]; first compound 0.003162 µM,0.325
same,relative viability,[11]; first compound 0.03162 µM,0.316
same,relative viability,[11]; first compound 0.1 µM,0.304
same,relative viability,[12]; first compound 0.003162 µM,0.622
same,relative viability,[12]; first compound 0.01 µM,0.628
same,relative viability,[12]; first compound 0.03162 µM,0.424
same,relative viability,[12]; first compound 0.1 µM,0.159
same,relative viability,[13]; first compound 0.001 µM,0.482
same,relative viability,[13]; first compound 0.003162 µM,0.501
same,relative viability,[13]; first compound 0.01 µM,0.511
same,relative viability,[13]; first compound 0.03162 µM,0.265
same,relative viability,[13]; first compound 0.1 µM,0.407
same,relative viability,[14]; first compound 0.001 µM,0.366
same,relative viability,[14]; first compound 0.003162 µM,0.327
same,relative viability,[14]; first compound 0.01 µM,0.373
same,relative viability,[14]; first compound 0.03162 µM,0.296
same,relative viability,[14]; first compound 0.1 µM,0.164
same,relative viability,[15]; first compound 0.001 µM,0.41
same,relative viability,[15]; first compound 0.003162 µM,0.655
same,relative viability,[15]; first compound 0.01 µM,0.649
same,relative viability,[15]; first compound 0.1 µM,0.247
same,relative viability,[16]; first compound 0.001 µM,0.557
same,relative viability,[16]; first compound 0.003162 µM,0.637
same,relative viability,[16]; first compound 0.01 µM,0.643
same,relative viability,[16]; first compound 0.03162 µM,0.554
same,relative viability,[16]; first compound 0.1 µM,0.24
same,relative viability,[17]; first compound 0.001 µM,0.783
same,relative viability,[17]; first compound 0.003162 µM,0.886
same,relative viability,[17]; first compound 0.01 µM,0.797
same,relative viability,[17]; first compound 0.03162 µM,0.719
same,relative viability,[17]; first compound 0.1 µM,0.778
same,relative viability,[18]; first compound 0.001 µM,0.95
same,relative viability,[18]; first compound 0.003162 µM,1.09
same,relative viability,[18]; first compound 0.01 µM,1.1
same,relative viability,[18]; first compound 0.03162 µM,0.844
same,relative viability,[18]; first compound 0.1 µM,0.528
same,relative viability,[19]; first compound 0.001 µM,0.821
same,relative viability,[19]; first compound 0.003162 µM,1.33
same,relative viability,[19]; first compound 0.01 µM,1.13
same,relative viability,[19]; first compound 0.03162 µM,0.357
same,relative viability,[19]; first compound 0.1 µM,0.203
same,relative viability,[20]; first compound 0.001 µM,0.306
same,relative viability,[20]; first compound 0.003162 µM,0.334
same,relative viability,[20]; first compound 0.01 µM,0.308
same,relative viability,[20]; first compound 0.03162 µM,0.29
same,relative viability,[20]; first compound 0.1 µM,0.207
same,relative viability,[21]; first compound 0.001 µM,0.214
same,relative viability,[21]; first compound 0.003162 µM,0.239
same,relative viability,[21]; first compound 0.01 µM,0.188
same,relative viability,[21]; first compound 0.03162 µM,0.207
same,relative viability,[21]; first compound 0.1 µM,0.136
same,relative viability,[22]; first compound 0.001 µM,0.607
same,relative viability,[22]; first compound 0.003162 µM,0.689
same,relative viability,[22]; first compound 0.01 µM,0.665
same,relative viability,[22]; first compound 0.03162 µM,0.456
same,relative viability,[22]; first compound 0.1 µM,0.433
same,relative viability,[23]; first compound 0.001 µM,0.414
same,relative viability,[23]; first compound 0.003162 µM,0.414
same,relative viability,[23]; first compound 0.01 µM,0.51
same,relative viability,[23]; first compound 0.03162 µM,0.338
same,relative viability,[23]; first compound 0.1 µM,0.434
